Results published in ChEMBL document CHEMBL4483862, “Open-source discovery of chemical leads for next-generation chemoprotective antimalarials” (2018).

Test system: Plasmodium berghei
Assay: Luciferase/luciferin-expressing antifolate-resistant parasites were used to infect a culture of HepG2 cells that were pre-incubated with compounds. Infected hepatocytes emit light due to the luciferase reaction. Assay results are presented as the percent inhibition of light emission compared to control. […]
Assay type: functional
Details: sporozoite; for IC90: read-out: LUCIFERASE INFECTION ASSAY - IC90
[1] = read-out: LUCIFERASE INFECTION ASSAY - IC50

SMILES	IC90 [µM]	other results
Cc1ccc(-c2nnc3n2CCCCC3)cc1NC(=O)c1ccc([N+](=O)[O-])o1	> 10	IC50 (HEPG2TOX_HILL_SLOPE 6.11, HEPG2TOX_R_SQUARED 0.316, PBLUC_HILL_SLOPE 1.35, PBLUC_R_SQUARED 0.486, read-out: LUCIFERASE INFECTION ASSAY - IC50): 6.12 µM
CCOCc1c(C(=O)Nc2ccccc2N2CCN(C)CC2)oc2ccccc12	7.05	IC50 (PBLUC_HILL_SLOPE 0.969, 2.85, PBLUC_R_SQUARED 0.516, 0.696, read-out: LUCIFERASE INFECTION ASSAY - IC50): 2.83 µM
O=C(COc1ccc2[nH]c3ccccc3c(=O)c2c1)N1CCN(c2ccc(F)cc2)CC1	7.49	IC50 (PBLUC_HILL_SLOPE 2.14, PBLUC_R_SQUARED 0.725, read-out: LUCIFERASE INFECTION ASSAY - IC50): 2.68 µM
NC(=O)N1CC=C(c2ccc(Oc3ncnc4sccc34)cc2)CC1	> 2	IC50 [1]: > 2 µM
Cc1ccc(C)c(OCCSc2ccc(C(=O)NC3CC3)cn2)c1	3.93	IC50 [1]: 3.35 µM
Cc1c(C)c(C)c(C(=O)C2CCN(C(=O)c3ccc([N+](=O)[O-])o3)CC2)c(C)c1C	> 8.28	IC50 (FFLUC_HILL_SLOPE 1.26, FFLUC_R_SQUARED 0.398, read-out: LUCIFERASE INFECTION ASSAY - IC50): > 8.28 µM
Cc1ccc2nc(NC(=O)c3ccccc3)c(C(=O)NC3CCCCC3)n2c1	3.2	IC50 (FFLUC_HILL_SLOPE 0.276, FFLUC_R_SQUARED 0.15, HEPG2TOX_HILL_SLOPE 1.74, HEPG2TOX_R_SQUARED 0.886, PBLUC_HILL_SLOPE 12, PBLUC_R_SQUARED 0.694, read-out: LUCIFERASE INFECTION ASSAY - IC50): 2.66 µM
O=C(Nc1ccccc1-c1nc(=O)c2ccccc2[nH]1)C12CC3CC(CC(C3)C1)C2	> 10	IC50 (PBLUC_HILL_SLOPE 7.56, PBLUC_R_SQUARED 0.487, read-out: LUCIFERASE INFECTION ASSAY - IC50): 9.01 µM
CCOC(=O)/C=c1\s/c(=C\c2ccc(N3CCCCC3)c([N+](=O)[O-])c2)c(=O)n1CC(=O)N1CCC(C)CC1	> 10	IC50 (FFLUC_HILL_SLOPE 86.1, FFLUC_R_SQUARED 0.469, PBLUC_HILL_SLOPE 14.4, PBLUC_R_SQUARED 0.0813, read-out: LUCIFERASE INFECTION ASSAY - IC50): > 10 µM
COc1ccc(/C=C(/C(=O)Nc2ccc(C)c(C)c2)c2nc3ccccc3s2)cc1	3.66	IC50 (HEPG2TOX_HILL_SLOPE 13.8, HEPG2TOX_R_SQUARED 0.904, PBLUC_HILL_SLOPE 19.4, PBLUC_R_SQUARED 0.196, read-out: LUCIFERASE INFECTION ASSAY - IC50): 3.27 µM
c1ccc(-c2cn3nc(NCC(c4cccs4)N4CCOCC4)sc3n2)cc1 (centres undefined)	6.67	IC50 (PBLUC_HILL_SLOPE 82.8, PBLUC_R_SQUARED 0.111, read-out: LUCIFERASE INFECTION ASSAY - IC50): 6.5 µM
NC(=O)c1ccc(-c2cc(-c3cccc(F)c3)cnc2N)cc1	10.5	IC50 (PBLUC_HILL_SLOPE 18, PBLUC_R_SQUARED 0.175, read-out: LUCIFERASE INFECTION ASSAY - IC50): 9.29 µM
Cc1cc(C(=O)N/N=C/C(C)(C)C)nn1-c1ccc(C(C)C)cc1	> 10.1	IC50 [1]: > 10.1 µM
CCOc1ccccc1NC(=O)CSc1nnc2cc(C)c3ccccc3n12	> 10	IC50 [1]: > 10 µM
COc1ccc(C(C#N)=C2C=CC(=NO)C=C2)cc1	> 13.1	IC50 (FFLUC_HILL_SLOPE 2.5, FFLUC_R_SQUARED 0.687, PBLUC_HILL_SLOPE 18.8, PBLUC_R_SQUARED 0.229, read-out: LUCIFERASE INFECTION ASSAY - IC50): 12.9 µM
Nc1nc(-c2c[nH]c3ccccc23)c(-c2ccccc2)s1	> 10	IC50 (PBLUC_HILL_SLOPE 2.51, PBLUC_R_SQUARED 0.619, read-out: LUCIFERASE INFECTION ASSAY - IC50): 7.04 µM
COC(=O)c1c(NC(=O)C2CCOC2)c2cc(NCC(C)(C)C)cnc2n1CCc1c[nH]c2ccccc12 (centres undefined)	> 6.38	IC50 (PBLUC_HILL_SLOPE 3.23, PBLUC_R_SQUARED 0.492, read-out: LUCIFERASE INFECTION ASSAY - IC50): 4.09 µM
COC(=O)C1=C(Nc2ccc(OC(=O)Nc3cccc(Cl)c3)cc2)CSC1	> 8.15	IC50 (FFLUC_HILL_SLOPE 18, FFLUC_R_SQUARED 0.412, read-out: LUCIFERASE INFECTION ASSAY - IC50): > 8.15 µM
Cc1[nH]c2ccc(C(=O)Nc3ccc(N4CCOCC4)nc3)cc2c1C	> 10	IC50 (FFLUC_HILL_SLOPE 22.7, FFLUC_R_SQUARED 0.475, read-out: LUCIFERASE INFECTION ASSAY - IC50): > 10 µM
Cc1nc(CSc2nc3c(c(-c4ccccc4)c2C#N)C(=O)CC(C)(C)C3)cs1	> 10	IC50 (HEPG2TOX_HILL_SLOPE 0.218, HEPG2TOX_R_SQUARED 0.218, PBLUC_HILL_SLOPE 7.94, PBLUC_R_SQUARED 0.255, read-out: LUCIFERASE INFECTION ASSAY - IC50): 9.59 µM
CCSC1=N/C(=C\c2cc(C(C)(C)C)c(O)c(C(C)(C)C)c2)C(=O)S1	> 8.74	IC50 (FFLUC_HILL_SLOPE 2.27, FFLUC_R_SQUARED 0.423, read-out: LUCIFERASE INFECTION ASSAY - IC50): > 8.74 µM

SMILES	IC90 [µM]	other results
COc1ccccc1-c1cc2c(Nc3ccc(OC(F)(F)F)cc3)nccc2n1C	8.42	IC50 (FFLUC_HILL_SLOPE 12.5, FFLUC_R_SQUARED 0.343, HEPG2TOX_HILL_SLOPE 2.16, HEPG2TOX_R_SQUARED 0.708, PBLUC_HILL_SLOPE 2.92, PBLUC_R_SQUARED 0.46, read-out: LUCIFERASE INFECTION ASSAY - IC50): 3.97 µM
CNC(=S)Nc1ccc(-n2cnc3ccccc32)cc1	> 10	IC50 [1]: > 10 µM
c1ccc(Oc2ccccc2-c2cnn3c(NCc4ccccn4)ccnc23)cc1	> 8.39	IC50 (PBLUC_HILL_SLOPE 14.9, PBLUC_R_SQUARED 0.143, read-out: LUCIFERASE INFECTION ASSAY - IC50): 8.25 µM
CC(C)(C)c1cnc(CSc2nc3ccc(Cl)cc3[nH]2)o1	> 10	IC50 (HEPG2TOX_HILL_SLOPE 0.519, HEPG2TOX_R_SQUARED 0.541, PBLUC_HILL_SLOPE 2.57, PBLUC_R_SQUARED 0.344, read-out: LUCIFERASE INFECTION ASSAY - IC50): 5.12 µM
CCCn1nc(C(=O)N2CC(C)CC(C)C2)ccc1=O (centres undefined)	> 10	IC50 [1]: > 10 µM
CC(C)c1ccc(NC2=NN=C(c3cccs3)CS2)cc1	> 10	IC50 (HEPG2TOX_HILL_SLOPE 7.09, HEPG2TOX_R_SQUARED 0.364, read-out: LUCIFERASE INFECTION ASSAY - IC50): > 10 µM
N#CC(C#N)=NNc1ccc(-c2ccccc2)cc1	> 10	IC50 (HEPG2TOX_HILL_SLOPE 3.84, HEPG2TOX_R_SQUARED 0.689, PBLUC_HILL_SLOPE 2.62, PBLUC_R_SQUARED 0.817, read-out: LUCIFERASE INFECTION ASSAY - IC50): 4.72 µM
O=C(Nc1ccc(F)cc1F)Nc1cc(Cl)sc1Cl	> 10.2	IC50 (PBLUC_HILL_SLOPE 1.97, PBLUC_R_SQUARED 0.405, read-out: LUCIFERASE INFECTION ASSAY - IC50): 6.86 µM
CC(C(=O)Nc1ccc(S(N)(=O)=O)cc1)N1CCC(CCc2ccccc2)CC1 (centres undefined)	> 10	IC50 (HEPG2TOX_HILL_SLOPE 3.11, HEPG2TOX_R_SQUARED 0.733, PBLUC_HILL_SLOPE 2.39, PBLUC_R_SQUARED 0.628, read-out: LUCIFERASE INFECTION ASSAY - IC50): 5.36 µM
CCc1cccc2c(C3=CCN(c4ncnc5c4cnn5C)CC3)c[nH]c12	> 10	IC50 [1]: > 10 µM
CCN(CC)C(CNC(=O)c1ccc2c(c1)OCC(=O)N2)c1ccccc1Cl (centres undefined)	8.02	IC50 (PBLUC_HILL_SLOPE 4.94, PBLUC_R_SQUARED 0.519, read-out: LUCIFERASE INFECTION ASSAY - IC50): 5.14 µM
Cc1cc(=O)oc2cc(OCc3ccc(C(=O)Nc4nc5ccccc5[nH]4)cc3)ccc12	> 10	IC50 (PBLUC_HILL_SLOPE 0.6, PBLUC_R_SQUARED 0.47, read-out: LUCIFERASE INFECTION ASSAY - IC50): 3.19 µM
COc1cc2c(cc1NC(=O)Cn1cnc(C#N)n1)oc1ccccc12	> 10	IC50 (HEPG2TOX_HILL_SLOPE 16.6, HEPG2TOX_R_SQUARED 0.479, read-out: LUCIFERASE INFECTION ASSAY - IC50): > 10 µM
O=C(Nc1ccccc1)N1CCC(C(=O)N2CCN(C(=O)c3ccccc3Cl)CC2)CC1	> 10	IC50 [1]: > 10 µM
Cc1cc(N2CCN(C)CC2)n2ncc(-c3ccccc3Cl)c2n1	> 9.65	IC50 (PBLUC_HILL_SLOPE 0.809, PBLUC_R_SQUARED 0.766, read-out: LUCIFERASE INFECTION ASSAY - IC50): 1.46 µM
CCn1c2ccccc2c2cc(/C=C(\C#N)c3nnc(N4CCOCC4)n3-c3ccccc3)ccc21	> 10	IC50 [1]: > 10 µM
CC(=O)n1nc(NCc2cccc(Cl)c2)nc1NCc1cccc(Cl)c1	> 8.46	IC50 (PBLUC_HILL_SLOPE 1.95, PBLUC_R_SQUARED 0.375, read-out: LUCIFERASE INFECTION ASSAY - IC50): 4.3 µM
COc1cc(NC(=O)COC(=O)CNC(=O)C2CCCCC2)cc(OC)c1	> 10	IC50 [1]: > 10 µM
CC(OC(=O)c1ccccc1O)C(N)=O (centres undefined)	> 10	IC50 [1]: > 10 µM
Cc1cn2c(/C=C/c3nc4cc(Cl)ccc4o3)c(C)nc2s1	> 10	IC50 [1]: > 10 µM
Cc1cccc(-c2cc(NC=O)c3ncc(-c4ccc(S(C)(=O)=O)cc4)n3c2)c1	> 8.14	IC50 (FFLUC_HILL_SLOPE 0.295, FFLUC_R_SQUARED 0.0341, HEPG2TOX_HILL_SLOPE 11.3, HEPG2TOX_R_SQUARED 0.289, read-out: LUCIFERASE INFECTION ASSAY - IC50): > 8.14 µM
